Measurements published in patent publication US10046032B2, “Use of insulin for promoting gastric emptying” (NUTRINIA LTD., priority 2016, dated 2018).
Where “and” joins values, the source holds several entries; their conditions need not be identical. Equal entries are not always repeated.

Legend:
preterm infants [1] = system: preterm infants
Experimental: A Multi-center, two arms, randomized, double-blinded placebo controlled study was conducted to evaluate the effect of insulin-enriched infant formula on preterm infants. The insulin was given within a liquid infant formula with insulin concentration of 400 μU/ml. The study primary goal was to determine whether insulin supplement within the basic preterm oral formula enhances gastric emptying. The gastric emptying was evaluated by the reduction in the amount of gastric residual of the preterm infants.
The infants were randomly assigned to one of two treatment groups: the study product containing insulin as a test group and Placebo supplement as a control group. The parents, the medical team treating the infants and the study monitor were blinded to the treatment arm. From study day 1, the infants in the test group received insulin mixed with the ready to feed (RTF) preterm Materna formula and the control group received a placebo supplement mixed with the same RTF preterm Materna formula.
The insulin composition was used according to study definitions and feeding protocol only. Formula administration was begun at study day 1 and continued throughout the following 28 days or discharge day if achieved prior to day 28. […]

preterm infants [2] = experiment: Twin pair study: days until gastric residuals fall, insulin-enriched preterm formula vs placebo; format: in vivo, human; conditions: twin pairs
From the text: (§1) Evaluation of gastric residuals (GR) is used in neonatal intensive care units to measure the volume of milk remaining in the stomach at a variable time after a feeding, and as an indicator of gastric emptying (GE).
(§2) 33 preterm infants, aged up to 7 days old, born between 26-33 weeks of pregnancy, weighing over 750 grams, who are free from high index suspicion for infection showing stable condition were enrolled into this study.
(§3) The study products included the insulin composition disclosed herein and placebo. The insulin composition is intended to be mixed with 90 ml ready to feed (RTF) preterm infant formula (manufacturer: Nestle Germany, importer: Materna Laboratories, Israel). Once the insulin is added to the formula, the formula has the concentration of 400 μU Insulin/ml formula.
(§4) Standard feeding bottles and nipples were used.
(§5) The gastric residual amount was measured after every meal.
Twin pairs, treated with insulin as described above, were examined for number of days until gastric residual measurements reached less than 0 ml/kg body weight (FIG. 2 and Table 1) or 2 ml/kg (FIG. 1 and Table 2). […] The enteral administration of insulin strikingly provided a statistically significant improvement in the number of days until gastric residuals reached […] body weight, or <2 ml/kg body weight, relative to control treated infants.

preterm infants [3] = experiment: Singleton study: days until gastric residuals fall, insulin-enriched preterm formula vs placebo; format: in vivo, human; conditions: singletons
From the text: as §1, §2, §3, §4, §5
Singletons were examined for number of days until gastric residual measurements reached less than 2 ml/kg body weight (FIG. 3) and until no gastric residuals were emitted (Table 3).

[4] = insulin 400 μU/ml in formula, up to 28 days

Human insulin
Deleterious effects resulting from the insulin administration (preterm infants [1]; low birth weight / preterm infants, enteral insulin): No deleterious effects | Effect on blood glucose or insulin levels (preterm infants [1]; orally administered to preterm infants): without affecting the blood glucose or insulin levels | Time to reach gastric residuals of less than 2 ml/kg or 0 ml/kg versus control twin (preterm infants [2]; FIG. 1 (p=0.031) and FIG. 2 (p=0.074)): earlier than their control infant twin in most twin pairs | Number of days until gastric residuals reached 0 ml/Kg body weight, Median (preterm infants [2]; [4]): 0.0 days | Number of days until gastric residuals reached < 2 ml/Kg body weight, Median (preterm infants [2]; [4]): 0 days | Number of days until gastric residuals reached < 2 ml/Kg body weight, Average (preterm infants [2]; insulin 400 μU/ml in formula, up to 28 days, P = 0.031 vs control): 3.8 days | Number of days until gastric residuals reached 0 ml/Kg body weight, Average (preterm infants [2]; insulin 400 μU/ml in formula, up to 28 days, P = 0.074 vs control): 4.1 days | Time to reach gastric residuals of less than 2 ml/kg versus control (preterm infants [3]; FIG. 3, P=0.121): earlier than the control | Time to reach no gastric residuals (0 ml/kg) versus control (preterm infants [3]; Table 3, P=0.021): earlier than their control singletons | Number of days until no gastric residuals are emitted, Median (range) (preterm infants [3]; insulin 400 μU/ml in formula, P=0.021 vs control): 0.0 (0-2) days | Number of days until no gastric residuals are emitted, individual infant (preterm infants [3]; treatment infants no. 1-6, insulin 400 μU/ml in formula): 0 days (5×) and 2 days
